# Assays:
# [1] = test system: P. aeruginosa; assay: Minimal inhibitory concentration; assay type: cell-based; details: Pseudomonas aeruginosa
# [2] = test system: P. aeruginosa embedded in pre-formed biofilm; assay: Viability of P. aeruginosa embedded in pre-formed biofilm (BacTiter-Glo); assay type: cell-based, Pseudomonas aeruginosa; details: 24 h biofilm, 6 hours treatment; RLU converted to cCFU
# Procedure: To test the effect of phage on biofilm, starters of the relevant bacteria were grown overnight. Three isolated single colonies of the relevant strains were picked into 3 mL TSB and shook overnight at 37° C., 180 rpm, to an OD600>1, one starter used for each of two biological repeats. The next day, the starters were dispersed in 96 wells plate and the biofilm was left to form for 24 hours: cultures were diluted 1:100 in 3 mL fresh TSB (Tryptic Soy Broth) medium and OD600 was adjusted to ˜0.05 (˜4×10^7 CFU/mL). 200 μL of the diluted inoculums were added per well in a 96 well culture plate (Biofil, cat #TCP-011-096) according to the plate layout. 200 μL TSB was used for blank wells. […] After the incubation period, the supernatant was carefully removed (media, waste, phages/antibiotics, and planktonic cells) the biofilm was washed again with 200 μL PBS (Phosphate-buffered saline, Hylabs, cat #BP655) and its biomass measured (staining with crystal violet (CV) and/or viable cells (plating for CFU enumeration).
# For host cells viability assessment, the BacTiter-Glo (Promega, cat #G8231) method was used. The method measures viable bacterial cells based on quantification of the ATP present in the viable cells. The readout is a luminescent signal (in relative light units (RLU)) in an ATP-dependent reaction. […]
# [3] = test system: Pseudomonas aeruginosa strains 883, 762, PAO1; assay: Synergism with antibiotic in liquid infection (OD600 growth curves); assay type: cell-based
# Procedure: To test the efficacy of the phage and antibiotics in liquid culture, bacterial host cells were grown overnight in TSB at 37° C. with shaking at 180 rpm to OD600>1.5. In addition, each phage was diluted to a concentration of 5×10^7 PFU/ml in TSB and used individually or combined equally with other phages into a cocktail. Then, 1 mM ions were added, and 200 μL was dispensed per well in a 96-well plate to a final concentration of […]. For no phage control (NPC), TSB containing 1 mM ions was used. Antibiotics was added to the relevant wells (aztreonam 4 μg/mL, colistin 2 μg/mL for “883,” 4 μg/mL for “762” and 6 μg/mL for PAO1). Then, 2 μL of the bacterial culture was added to the wells (dilution of 1:100). TSB containing 1 mM ions was used as NPC. Two repeats were done for each treatment, and TSB media served as a blank. 50 μL of mineral oil added were added to each well to reduce evaporation of the samples, and the plate was covered with a sterile film to allow for bacterial growth and keep the culture sterile. Plates were incubated for approximately 30 hours in a plate reader at 37° C. with shaking, and OD600 was measured every 20 minutes. Two biological repeats were performed for the assay.
smiles,measurement,setting,value
"C[C@@H](O)[C@H]1C(=O)N2C(C(=O)O)=C(SCCN=CN)C[C@H]12 [antibiotic, imipenem]",MIC,[1],4 µg/mL
same,reduction of bacterial burden of embedded PsA,[2],~1 logs
"NC[C@H]1O[C@H](O[C@H]2[C@H](O)[C@@H](O[C@H]3O[C@H](CO)[C@@H](O)[C@H](N)[C@H]3O)[C@H](N)C[C@@H]2N)[C@H](N)C[C@@H]1O [Tobramycin, tobramycin]",time growth was suppressed,"[3]; PsA strains, single treatment alone",approximately 25 hours
C[C@H]1[C@H](NC(=O)/C(=N\OC(C)(C)C(=O)O)c2csc(N)n2)C(=O)N1S(=O)(=O)O [aztreonam],effect on bacterial growth / appearance of bacteria mutants,"[3]; PsA strains (e.g., PAO1, 883)",slower bacterial growth throughout the observed period

# Reference: patent publication US20240173369A1 (priority 2021, published 2024)
